This note sets out measurements from ChEMBL document CHEMBL1158718, “4-Hydroxybenzoyl derivative from the aqueous extract of the hydroid Campanularia sp” (J Nat Prod, 2005).

Each structure is given as a SMILES string. Active and inactive are the calls of the source. The rule behind the calls is not given here.

For test [1], the system named is ARP1. Description: Induction of P21WAF1 gene expression in human ARP1 cells. It counts as functional, cell-based.
Test [2] deals with ARP1. The experiment in a line: Growth inhibition of human ARP1 cells up to 100 uM. Type of test: functional, cell-based.
Test [3] has as its target Histone deacetylase (Homo sapiens) (UniProt Q13547+O15379+Q9UBN7+Q92769+Q9UQL6+Q8WUI4+Q9BY41+Q96DB2+P56524+Q9UKV0+Q969S8). The experiment in a line: Inhibition of HDAC in human ARP1 cells. It counts as cell-based.

Take `O=C(CCCCCCC(=O)Nc1ccccc1)NO`: in the test with ARP1 [1], the outcome was Active.

As for `N=C(N)NCCCCNC(=O)C(=O)c1ccc(O)cc1`, the outcome (with ARP1 [2]; in test [3]) was inactive.
